Results from patent publication US20260297060A1, “COMPOUNDS FOR THE DEGRADATION OF MUTANT BRAF” (C4 THERAPEUTICS, INC., priority 2023, published 2026).
Read-outs that look alike come from different tables or passages of the source.

Test: Pharmacokinetics after 21 days dosing in the efficacy study (plasma, tumor and brain concentrations; plasma AUC at steady state), Example 14
Type: in vivo, female BALB/c nude mice
Conditions: for Concentration in Brain / concentration at 24 h: 24 h; for Concentration in Brain: BQL: below the lower limit of quantitation; for concentration at 4 h / concentration at 24 h / concentration at 0.25 h / concentration at 0.5 h / concentration at 1 h / concentration at 2 h / concentration at 8 h / concentration at 10 h / AUC: mouse, po; for AUC: read-out: Plasma AUC at steady state (Day 21), Average
Experimental: Agents were tested in the A375 human melanoma xenografts. Compound 26 and Compound 141 were administered to BALB/c nude mice bearing A375 tumors from PG-DO and dosed via PO twice a day (BID) or third a day (TIP) or dosed P daily (QD) from PG-D. Dabrafenib was administered to BALB/c nude mice bearing A375 tumors from PG-D1 and dosed via P daily (QD). Compound 26 was dosed at 1.5 mg/kg (QD), 2 mg/kg (TID), 3 mg/kg (BID), 6 mg/kg (QD) and 10 mg/kg (BID) for 21 days. Compound 141 was dosed at 0.75 mg/kg (BID), 1 mg/kg (TID), 1.5 mg/kg (BID), 3 mg/kg (QD) and 5 mg/kg (BID) for 21 days. Dabrafenib was dosed at 100 mg/kg for 21 days. This study was non-GLP.
The plasma samples were collected at predetermined time points for PK analysis. For non-termination plasma collection: the blood samples were collected into the 1.5 mL Eppendorf tubes containing 3 μL of 0.5 M EDTA-K2. And then the anticoagulant blood samples were centrifuged at 2,500 g at 4° C. for 15 minutes. For termination plasma collection: the mice was euthanized at predetermined time points post the treatment, the blood samples were collected into the 1.5 mL Eppendorf tubes containing 15 μL of 0.5 M EDTA-K2. And then the anticoagulant blood samples were centrifuged at 2,500 g at 4° C. for 15 minutes. The plasma samples were separated into 2 aliquots. The 1st was used for PK analysis, and the 2nd was served as backup.
The tumor samples were collected at predetermined time points for PK and WB analysis. The tumor was dissected out and split into 3 parts. The 1st part was used for PK analysis, the 2nd part was used for WB analysis and the last one was used as backup for the study. The samples were transferred into pre-labeled tubes and quickly froze in liquid nitrogen within 2 minutes after dissection. The samples were stored at −80° C. before analysis.
The brain samples were collected at predetermined time points for PK and potential WB analysis. The brain was dissected out and split into 3 parts (left brain, right brain upper and right brain lower), the left brain was used for PK, the right brain upper was used for WB and the last one was used as the backup for the study. The samples were transferred into pre-labeled tubes and quickly froze in liquid nitrogen within 2 minutes after dissection. The samples were stored at −80° C. before analysis.
The harvested plasma and tumor samples were processed for pharmacokinetics analysis by LC-MS/MS with a concentration range of 1.00-1,000 ng/mL for dabrafenib in plasma and 0.0500-50 ng/mL in tumor and brain homogenate, 5.00-10,000 ng/mL for Compound 141 in plasma and 0.200~200 ng/ml in tumor and brain homogenate. 20.0~20,000 ng/mL for Compound 26 in plasma and 0.5~500 ng/mL for Compound 26 tumor and brain homogenate.
Dabrafenib, Compound 26 and Compound 141 in female BALB/c nude mice plasma (K2-EDTA), tumor and brain homogenate were analyzed by LC-MS/MS (Triple Quad 6500+ Low Mass). Verapamil (5 ng/mL) in acetonitrile: methanol (V: V=95:5) was used as the internal standard for Dabrafenib, Compound 26 and Compound 141 in plasma. Verapamil (0.5 ng/mL) in acetonitrile: methanol (V: V=95:5) was used as the internal standard for Dabrafenib, Compound 26 and Compound 141 in tumor and brain homogenate.
An aliquot of 10 μL unknown sample, calibration standard, quality control, dilute quality control, single blank and double blank samples were added to the 96-well plate. Each sample for Dabrafenib, Compound 26 and Compound 141 in plasma (except the double blank) was quenched with 200 μL IS respectively (double blank sample was quenched with 200 μL ACN: MeOH (V: V=95:5)); each sample for Dabrafenib, Compound 26 and Compound 141 in tumor and brain(except the double blank) was quenched with 100 μL IS respectively (double blank sample was quenched with 100 μL ACN: MeOH (V: V=95:5)); and then the mixture was vortex-mixed for 5 min at 800 rpm and centrifuged for 15 min at 3220 g (4000 rpm), 4° C. […]

[1] = plasma, 1.5 mg/kg p.o. BID x 21 days, mean ± SEM
[2] = plasma, 1.5 mg/kg p.o. BID x 21 days, mean ± SEM, read-out: Concentration in Plasma
[3] = plasma, 2 mg/kg p.o. TID x 21 days, mean ± SEM
[4] = plasma, 2 mg/kg p.o. TID x 21 days, mean ± SEM, read-out: Concentration in Plasma
[5] = plasma, 3 mg/kg p.o. BID x 21 days, mean ± SEM
[6] = plasma, 3 mg/kg p.o. BID x 21 days, mean ± SEM, read-out: Concentration in Plasma
[7] = plasma, 6 mg/kg p.o. QD x 21 days, mean ± SEM
[8] = plasma, 6 mg/kg p.o. QD x 21 days, mean ± SEM, read-out: Concentration in Plasma
[9] = plasma, 10 mg/kg p.o. BID x 21 days, mean ± SEM
[10] = plasma, 10 mg/kg p.o. BID x 21 days, mean ± SEM, read-out: Concentration in Plasma
[11] = tumor, 1.5 mg/kg p.o. BID x 21 days, mean ± SEM, read-out: Concentration in Tumor
[12] = tumor, 2 mg/kg p.o. TID x 21 days, mean ± SEM, read-out: Concentration in Tumor
[13] = tumor, 3 mg/kg p.o. BID x 21 days, mean ± SEM, read-out: Concentration in Tumor
[14] = tumor, 6 mg/kg p.o. QD x 21 days, mean ± SEM, read-out: Concentration in Tumor
[15] = tumor, 10 mg/kg p.o. BID x 21 days, mean ± SEM, read-out: Concentration in Tumor

## CCN(C)S(=O)(=O)Nc1ccc(F)c(Oc2ccc3ncn([C@H]4COC5(CCN(C6CC7(C6)CN(c6cc8c(cc6F)c(N6CCC(=O)NC6=O)nn8C)C7)CC5)C4)c(=O)c3c2)c1C#N [Compound 26, (3R)-3-[6-[2-cyano-3-[[ethyl(methyl)sulfamoyl]amino]-6-fluoro-phenoxy]-4-oxo-quinazolin-3-yl]-8-[2-[3-(2,4-dioxohexahydropyrimidin-1-yl)-5-fluoro-1-methyl-indazol-6-yl]-2-azaspiro[3.3]heptan-6-yl]-1-oxa-8-azaspiro[4.5]decane]
1.5 mg/kg p.o. BID x 21 days
  Concentration in Brain: BQL
2 mg/kg p.o. TID x 21 days
  Concentration in Brain: BQL
3 mg/kg p.o. BID x 21 days
  Concentration in Brain: BQL
brain, 1.5 mg/kg p.o. BID x 21 days, mean ± SEM, read-out: Concentration in Brain
  concentration at 4 h: 28 ± 8.47 ng/g
brain, 2 mg/kg p.o. TID x 21 days, mean ± SEM, read-out: Concentration in Brain
  concentration at 4 h: 51.1 ± 11.5 ng/g
brain, 3 mg/kg p.o. BID x 21 days, mean ± SEM, read-out: Concentration in Brain
  concentration at 4 h: 66.6 ± 4.67 ng/g
brain, 6 mg/kg p.o. QD x 21 days, mean ± SEM, read-out: Concentration in Brain
  concentration at 4 h: 116 ± 8.11 ng/g
brain, 6 mg/kg p.o. QD x 21 days, read-out: Concentration in Brain
  concentration at 24 h: 7.19 ng/g
brain, 10 mg/kg p.o. BID x 21 days, mean ± SEM, read-out: Concentration in Brain
  concentration at 4 h: 233 ± 48.4 ng/g
brain, 10 mg/kg p.o. BID x 21 days, read-out: Concentration in Brain
  concentration at 24 h: 7.79 ng/g
[1]
  concentration at 0.25 h: 1.33 ± 0.12 µg/mL
  concentration at 0.5 h: 1.91 ± 0.332 µg/mL
  concentration at 1 h: 3.49 ± 0.364 µg/mL
  concentration at 2 h: 3.14 ± 0.671 µg/mL
  concentration at 8 h: 0.912 ± 0.118 µg/mL
  concentration at 10 h: 0.694 ± 0.0799 µg/mL
[2]
  concentration at 4 h: 2.17 ± 0.716 µg/mL
  concentration at 24 h: 0.0323 µg/mL
plasma, 1.5 mg/kg p.o. BID × 21 days
  AUC: 37.4 µg·h/mL
[3]
  concentration at 0.25 h: 2.63 ± 0.273 µg/mL
  concentration at 0.5 h: 5.75 ± 1.1 µg/mL
  concentration at 1 h: 5.42 ± 0.571 µg/mL
  concentration at 2 h: 5.11 ± 0.286 µg/mL
  concentration at 8 h: 2.06 ± 0.15 µg/mL
  concentration at 10 h: 1.55 ± 0.0371 µg/mL
[4]
  concentration at 4 h: 3.79 ± 0.666 µg/mL
  concentration at 24 h: 0.106 ± 0.0177 µg/mL
plasma, 2 mg/kg p.o. TID × 21 days
  AUC: 88.3 µg·h/mL
[5]
  concentration at 0.25 h: 2.49 ± 0.107 µg/mL
  concentration at 0.5 h: 4.86 ± 0.801 µg/mL
  concentration at 1 h: 5.83 ± 0.591 µg/mL
  concentration at 2 h: 6.75 ± 0.675 µg/mL
  concentration at 8 h: 3.03 ± 0.252 µg/mL
  concentration at 10 h: 2.47 ± 0.266 µg/mL
[6]
  concentration at 4 h: 3.97 ± 0.452 µg/mL
  concentration at 24 h: 0.116 ± 0.0024 µg/mL
plasma, 3 mg/kg p.o. BID × 21 days
  AUC: 87.9 µg·h/mL
[7]
  concentration at 0.25 h: 4.44 ± 0.284 µg/mL
  concentration at 0.5 h: 9.99 ± 1.16 µg/mL
  concentration at 1 h: 12.9 ± 0.669 µg/mL
  concentration at 2 h: 14.6 ± 0.723 µg/mL
  concentration at 8 h: 8.22 ± 0.421 µg/mL
  concentration at 10 h: 6.2 ± 0.192 µg/mL
[8]
  concentration at 4 h: 8.71 ± 1.88 µg/mL
  concentration at 24 h: 0.156 ± 0.0109 µg/mL
plasma, 6 mg/kg p.o. QD × 21 days
  AUC: 115 µg·h/mL
[9]
  concentration at 0.25 h: 8.79 ± 0.316 µg/mL
  concentration at 0.5 h: 19.3 ± 2.22 µg/mL
  concentration at 1 h: 20.2 ± 2.24 µg/mL
  concentration at 2 h: 21.3 ± 1.56 µg/mL
  concentration at 8 h: 10.9 ± 0.379 µg/mL
  concentration at 10 h: 8.66 ± 0.186 µg/mL
[10]
  concentration at 4 h: 15.1 ± 2.21 µg/mL
  concentration at 24 h: 0.273 ± 0.0248 µg/mL
plasma, 10 mg/kg p.o. BID × 21 days
  AUC: 312 µg·h/mL
[11]
  concentration at 4 h: 392 ± 150 ng/g
  concentration at 24 h: 11.8 ± 1.59 ng/g
[12]
  concentration at 4 h: 930 ± 57.3 ng/g
  concentration at 24 h: 80.7 ± 25.2 ng/g
[13]
  concentration at 4 h: 1430 ± 159 ng/g
  concentration at 24 h: 54.3 ± 8.91 ng/g
[14]
  concentration at 4 h: 2910 ± 459 ng/g
  concentration at 24 h: 338 ± 169 ng/g
[15]
  concentration at 4 h: 4250 ± 313 ng/g
  concentration at 24 h: 663 ± 153 ng/g
